Experiments:
[1] = system: normal colonocytes (NCM460); assay: Mitochondrial uptake of AuPhos by gold content (graphite furnace atomic absorption spectroscopy) in NCM460; format: cell-based, human; settings: normal colon epithelial cells (NCM460)
Description: (§1) FIGS. 8A-8J present properties of AuPhos. FIG. 8A includes a chemical structure of AuPhos. FIG. 8B includes extrapolated AuPhos-induced OCR (complex I) in liver mitochondria. […] FIG. 8E provides weight change in AuPhos-treated mice over time. FIG. 8F presents stability of AuPhos in PBS and DMEM. FIG. 8G presents stability of AuPhos in PBS and DMEM. FIG. 8H includes an AuPhos-induced Heat map of DEG (left Panel), obtained using log 2(Fold Change) and p-Value <0.00001 thresholds in MDA-MB-231(107) cells (n=2), and the top six hits of KEGG analysis (right panel). FIG. 8I presents biodistribution and pharmacokinetics of AuPhos in different tissues; Colon, Small bowel, Lung, Kidney, Spleen, Liver, Heart and Blood after single dose (oral, 25 mg/kg) administration of AuPhos at 6 h, 12 h and 24 h. FIG. 8J presents biodistribution and pharmacokinetics of AuPhos in different tissues stool after single dose (oral, 25 mg/kg) administration of AuPhos at 6 h, 12 h and 24 h.
FIGS. 16A-16E illustrate the pharmacokinetics and effects of AuPhos on mitochondrial bioenergetics. FIG. 16A. Biodistribution and pharmacokinetics of AuPhos in different tissues; Colon, Small bowel, Spleen, Liver after a single intragastric (i.g.) gavage (25 mg/kg) with measurements of AuPhos tissue levels (graphite furnace atomic absorption spectroscopy) at times indicated. FIG. 16B. […]

isolated IEC = assay: Western blot of IEC proteins from control or DSS colitis mice gavaged with AuPhos; format: in vivo, mouse
Experimental: Control or DSS colitis mice were gavaged with vehicle (−) or AuPhos (+) (as in FIG. 2) and sacrificed on D14. WB of isolated IEC proteins indicated are shown in nuclear and membranous protein fractions along with densitometry. (#mice=4 for each condition). *p<0.04. FIG. 16E. Normal human colonic biopsies were incubated at 4° C. with AuPhos×3 hrs. Membranous and nuclear fractions examined for indicated proteins by WB.
Taking advantage of the unique electrochemical properties and excellent safety profile of gold in humans, a stable gold compound was designed to modulate mitochondrial processes including oxidative phosphorylation (OXPHOS). […] IEC (FIG. 16C). […] These examples illustrate that AuPhos has utility for “gut selective” IBD therapy.

[2] = Stability of AuPhos in PBS and DMEM; format: physicochemical
Description: as §1
This observation was mitochondrial complex I-driven when different substrates, i.e. pyruvate and succinate, were used to measure the OCR. Transcriptomics was used to study global changes in mRNA in response to a 12 h exposure of AuPhos to MDA-MB-231 cells (FIG. 8H).

[3] = system: TNF-stimulated colonic NCM460 cells; assay: Western blot of TNF-stimulated NCM460 cells treated with AuPhos (mitochondrial biogenesis, PI3K markers); format: cell-based, human; settings: WB
Experimental: FIG. 14A Normal human colonic biopsies were incubated a^t 4° C. with AuPhos×3 hrs and membrane fractions examined for mitochondrial complexes expression by WB. FIG. 14B TNF-stimulated colonic NCM460 cells were treated overnight with AuPhos at concentrations indicated. WB for markers indicated are shown in nuclear and membranous protein fractions. FIG. 14C Markers of PI3K pathway were probed in nuclear and cytosolic fractions of AuPhos-treated NCM460 cells (treated with TNF). FIG. 14D NCM460 cell were treated overnight with TNF and probed for the ROS-induced P-PTEN, which inactivates PTEN and activates PI3K.
The effects of AuPhos in Px-accelerated IL-10KO mice by beginning treatment on D21 (7D after cessation of Px) when colitis is severe is shown in FIG. 13A. AuPhos-induced mitochondrial biogenesis and PI3K signaling. To examine the effect of AuPhos on mitochondrial biogenesis in human colonic IEC, fresh biopsies were cultured with a dose range of AuPhos and examined (after 3 h) for mitochondrial complex levels. […] Lastly, TNF stimulates p-PTEN in NCM460 cells indicative of ROS-induced PTEN inactivation as published. It is likely that induction of mtROS by AuPhos enhances PI3K signaling which promotes mitochondrial biogenesis (PGC1α and TFAM) as well as cooperate with Wnt to enhance β-catenin signaling in fissioning crypts.

colonic NCM460 cells = assay: MitoSOX Red assay of mtROS (superoxide) production; format: cell-based, human
Experimental: FIG. 11A includes representative images showing AuPhos-induced (200 nM) mtROS (superoxide) production using MitoSOX Red assay.
Given the in vivo data in FIG. 10, it was determined if AuPhos increases ROS levels within mitochondria (mtROS). To examine this possibility, colonic NCM460 cells were cultured, treated with a positive control (Rotenone), AuPhos (200 nM) or AuPhos with PEG-SOD (negative control) and analyzed with MitoSOX Red (an indicator of mitochondrial superoxide). […] Studies in FIGS. 11C and 11D used human colonoids isolated from normal patients to examine effects of AuPhos on hydrogen peroxide (H2O2) production from normal and low-dose TNF-stimulated colonoids.

[4] = system: breast cancer (MDA-MB-231); assay: Mitochondrial uptake of AuPhos by gold content (graphite furnace atomic absorption spectroscopy) in MDA-MB-231; format: cell-based; settings: cancerous epithelial cells (MDA-MB-231)
Description: as §1
Changing the geometry and stabilizing ligands of gold compounds, such as the use of bidentate frameworks, promote different mitochondrial effects.

[Cl][Au]1([c]2ccccc2Cc2ccccn2)[P](c2ccccc2)(c2ccccc2)c2ccccc2[P]1(c1ccccc1)c1ccccc1 [AuPhos]
mitochondrial localization (gold content) [1]: localizes in the mitochondria
Nrf2 and PGC1α levels in IEC (isolated IEC; WB): increased Nrf2 and PGC1α levels
mitochondrial complex levels in IEC (isolated IEC; control and DSS colitis mice, sacrificed D14, WB): increases mitochondrial complex levels
solution stability [2]: excellent solution stability
markers of PI3K [pAkt and pS6 kinase (pS6)] ([3]; NCM460 cells treated with TNF): induced markers of PI3K
PGC1a and TFAM protein ([3]; NCM460 cells, TNF-stimulated, overnight AuPhos): induces PGC1a and TFAM
nuclear pp-catenin5 ([3]; NCM460 cells): induction of nuclear pp-catenin5
AuPhos-induced mtROS production with PEG-SOD (colonic NCM460 cells; AuPhos 200 nM with PEG-SOD (negative control), NCM460): specifically inhibited with PEG-SOD
rise in mtROS production (colonic NCM460 cells; AuPhos 200 nM, NCM460 cells, MitoSOX Red): 45%
mitochondrial localization (gold content) [4]: localizes in the mitochondria

Reference: patent US12521415B2, “Accelerating repair of mucosal injury using gold(III) compounds” (University of Kentucky Research Foundation, priority 2020, dated 2026)
